These molecules were tested on beta-TC6 cells (assay: Insulin HTRF assay (relative activity Ar) in beta-TC6 cells). Conditions: Mus musculus, Beta-TC6, 4 h, insulin HTRF, supernatant of beta-TC6 cells, incubation with test compound at 37°C for 2, 3, 4h; read-out: Ar (relative activity).
Format: cell-based, mouse
Outline: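 beta-TC6 cells (15k/well, seeded 24 or 48 h) washed, then exposed to compound in induction buffer (0.5% DMSO final) for 2, 3 or 4 h at 37°C.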
c1cc2[nH]c(-c3ccsc3)cc2c(Nc2ccc(N3CCOCC3)cc2)n1 [Compound 256, N-(4-morpholinophenyl)-2-(3-thienyl)-1H-pyrrolo[3,2-c]pyridin-4-amine] showed an Emax of 50 to 100%.
In the case of CN1CCN(c2ccc(Nc3nccc4[nH]c(-c5ccsc5)cc34)cc2)CC1 [Compound 257, N-[4-(4-methylpiperazin-1-yl)phenyl]-2-(3-thienyl)-1H-pyrrolo[3,2-c]pyridin-4-amine], the Emax is reported as 30 to 50%.
With c1cc(Nc2nccc3[nH]c(-c4ccsc4)cc23)ccn1 [Compound 258, N-(4-pyridyl)-2-(3-thienyl)-1H-pyrrolo[3,2-c]pyridin-4-amine] the Emax was over 100%.
In the case of COc1ccc(Nc2nccc3[nH]c(-c4ccsc4)cc23)cc1 [Compound 259, N-(4-methoxyphenyl)-2-(3-thienyl)-1H-pyrrolo[3,2-c]pyridin-4-amine], the Emax is reported as 50 to 100%.
Molecule c1ccc(Nc2nccc3[nH]c(-c4ccsc4)cc23)nc1 [Compound 260, N-(2-pyridyl)-2-(3-thienyl)-1H-pyrrolo[3,2-c]pyridin-4-amine] has an Emax of 50 to 100%.
In the case of COC(=O)c1ccc(Nc2nccc3[nH]c(-c4ccsc4)cc23)cc1 [Compound 261, methyl 4-[[2-(3-thienyl)-1H-pyrrolo[3,2-c]pyridin-4-yl]amino]benzoate], the Emax is reported as 0 to 30%.
CS(=O)(=O)c1cccc(Nc2nccc3[nH]c(-c4ccsc4)cc23)c1 [Compound 262, N-(3-methylsulfonylphenyl)-2-(3-thienyl)-1H-pyrrolo[3,2-c]pyridin-4-amine] showed an Emax of 50 to 100%.
c1cc2[nH]c(-c3ccsc3)cc2c(Nc2ccc3c(c2)OCO3)n1 [Compound 263, N-(1,3-benzodioxol-5-yl)-2-(3-thienyl)-1H-pyrrolo[3,2-c]pyridin-4-amine] was tested, and the Emax was 50 to 100%.
Oc1cccc(Nc2nccc3[nH]c(-c4ccsc4)cc23)c1 [Compound 264, 3-[[2-(3-thienyl)-1H-pyrrolo[3,2-c]pyridin-4-yl]amino]phenol] was tested, and the Emax was 30 to 50%.
In the case of CS(=O)(=O)Nc1cccc(Nc2nccc3[nH]c(-c4ccsc4)cc23)c1 [Compound 265, N-[3-[[2-(3-thienyl)-1H-pyrrolo[3,2-c]pyridin-4-yl]amino]phenyl]methanesulfonamide], the Emax is reported as 50 to 100%.
For CC(=O)Nc1cccc(Nc2nccc3[nH]c(-c4ccsc4)cc23)c1 [Compound 266, N-[3-[[2-(3-thienyl)-1H-pyrrolo[3,2-c]pyridin-4-yl]amino]phenyl]acetamide], the Emax was 50 to 100%.
CC(=O)c1cccc(Nc2nccc3[nH]c(-c4ccsc4)cc23)c1 [Compound 267, 1-[3-[[2-(3-thienyl)-1H-pyrrolo[3,2-c]pyridin-4-yl]amino]phenyl]ethanone] was tested, and the Emax was 50 to 100%.
In the case of CS(=O)(=O)c1ccc(Nc2nccc3[nH]c(-c4ccsc4)cc23)cc1 [Compound 268, N-(4-methylsulfonylphenyl)-2-(3-thienyl)-1H-pyrrolo[3,2-c]pyridin-4-amine], the Emax is reported as 50 to 100%.
CC(C)Oc1ccc(Nc2nccc3[nH]c(-c4ccsc4)cc23)cc1 [Compound 269, N-(4-isopropoxyphenyl)-2-(3-thienyl)-1H-pyrrolo[3,2-c]pyridin-4-amine] gave an Emax of 0 to 30%.
Molecule CC(=O)Nc1ccc(Nc2nccc3c2cc(-c2ccsc2)n3C)cc1 [Compound 270, N-[4-[[1-methyl-2-(3-thienyl)pyrrolo[3,2-c]pyridin-4-yl]amino]phenyl]acetamide] has an Emax of 50 to 100%.
Molecule Cn1c(-c2ccsc2)cc2c(Nc3ccc(O)cc3)nccc21 [Compound 271, 4-[[1-methyl-2-(3-thienyl)pyrrolo[3,2-c]pyridin-4-yl]amino]phenol] has an Emax of 50 to 100%.
In the case of Cn1c(-c2ccsc2)cc2c(Nc3ccc4c(c3)OCCO4)nccc21 [Compound 273, N-(2,3-dihydro-1,4-benzodioxin-6-yl)-1-methyl-2-(3-thienyl)pyrrolo[3,2-c]pyridin-4-amine], the Emax is reported as 30 to 50%.
COc1ccc(Nc2nccc3c2cc(-c2ccsc2)n3C)cc1OC [Compound 274, N-(3,4-dimethoxyphenyl)-1-methyl-2-(3-thienyl)pyrrolo[3,2-c]pyridin-4-amine] gave an Emax of 30 to 50%.
Work on COc1ccc(Nc2nccc3c2cc(-c2ccsc2)n3C)cn1 [Compound 275, N-(6-methoxy-3-pyridyl)-1-methyl-2-(3-thienyl)pyrrolo[3,2-c]pyridin-4-amine] yielded an Emax of 50 to 100%.
In the case of Cn1c(-c2ccsc2)cc2c(Nc3cccnc3)nccc21 [Compound 276, 1-methyl-N-(3-pyridyl)-2-(3-thienyl)pyrrolo[3,2-c]pyridin-4-amine], the Emax is reported as 30 to 50%.
CN(C)c1cccc(Nc2nccc3c2cc(-c2ccsc2)n3C)c1 [Compound 277, N1,N1-dimethyl-N3-[1-methyl-2-(3-thienyl)pyrrolo[3,2-c]pyridin-4-yl]benzene-1,3-diamine] showed an Emax of 30 to 50%.
Work on Cn1c(-c2ccsc2)cc2c(Nc3ccncc3)nccc21 [Compound 278, 1-methyl-N-(4-pyridyl)-2-(3-thienyl)pyrrolo[3,2-c]pyridin-4-amine] yielded an Emax of 50 to 100%.
With COc1ccc(Nc2nccc3c2cc(-c2ccsc2)n3C)cc1 [Compound 279, N-(4-methoxyphenyl)-1-methyl-2-(3-thienyl)pyrrolo[3,2-c]pyridin-4-amine] the Emax was 30 to 50%.
With Cn1c(-c2ccsc2)cc2c(Nc3ccccn3)nccc21 [Compound 280, 1-methyl-N-(2-pyridyl)-2-(3-thienyl)pyrrolo[3,2-c]pyridin-4-amine] the Emax was 30 to 50%.
For Cn1c(-c2ccsc2)cc2c(Nc3ccc(C#N)cc3)nccc21 [Compound 281, 4-[[1-methyl-2-(3-thienyl)pyrrolo[3,2-c]pyridin-4-yl]amino]benzonitrile], the Emax was 0 to 30%.
Cn1c(-c2ccsc2)cc2c(Nc3cccc(S(C)(=O)=O)c3)nccc21 [Compound 282, 1-methyl-N-(3-methylsulfonylphenyl)-2-(3-thienyl)pyrrolo[3,2-c]pyridin-4-amine] showed an Emax of 30 to 50%.
In the case of Cn1c(-c2ccsc2)cc2c(Nc3ccc4c(c3)OCO4)nccc21 [Compound 283, N-(1,3-benzodioxol-5-yl)-1-methyl-2-(3-thienyl)pyrrolo[3,2-c]pyridin-4-amine], the Emax is reported as 30 to 50%.
COc1ccc(Nc2nccc3c2cc(-c2ccsc2)n3C)cc1O [Compound 284, 2-methoxy-5-[[1-methyl-2-(3-thienyl)pyrrolo[3,2-c]pyridin-4-yl]amino]phenol] gave an Emax of 50 to 100%.
In the case of Cn1c(-c2ccsc2)cc2c(Nc3ccncn3)nccc21 [Compound 285, 1-methyl-N-pyrimidin-4-yl-2-(3-thienyl)pyrrolo[3,2-c]pyridin-4-amine], the Emax is reported as 50 to 100%.
Molecule Cn1c(-c2ccsc2)cc2c(Nc3cccc(NS(C)(=O)=O)c3)nccc21 [Compound 286, N-[3-[[1-methyl-2-(3-thienyl)pyrrolo[3,2-c]pyridin-4-yl]amino]phenyl]methanesulfonamide] has an Emax of 50 to 100%.
Work on CC(=O)Nc1cccc(Nc2nccc3c2cc(-c2ccsc2)n3C)c1 [Compound 287, N-[3-[[1-methyl-2-(3-thienyl)pyrrolo[3,2-c]pyridin-4-yl]amino]phenyl]acetamide] yielded an Emax of 50 to 100%.
Work on CC(=O)c1cccc(Nc2nccc3c2cc(-c2ccsc2)n3C)c1 [Compound 288, 1-[3-[[1-methyl-2-(3-thienyl)pyrrolo[3,2-c]pyridin-4-yl]amino]phenyl]ethanone] yielded an Emax of 30 to 50%.
With Cn1c(-c2ccsc2)cc2c(Nc3ccc(S(C)(=O)=O)cc3)nccc21 [Compound 289, 1-methyl-N-(4-methylsulfonylphenyl)-2-(3-thienyl)pyrrolo[3,2-c]pyridin-4-amine] the Emax was 30 to 50%.
COc1cc(OC)cc(-c2cc3c(Nc4ccc(C(N)=O)cc4)nccc3[nH]2)c1 [Compound 290, 4-[[2-(3,5-dimethoxyphenyl)-1H-pyrrolo[3,2-c]pyridin-4-yl]amino]benzamide] was tested, and the Emax was 50 to 100%.
Molecule COc1cc(OC)cc(-c2cc3c(Nc4ccncc4)nccc3[nH]2)c1 [Compound 291, 2-(3,5-dimethoxyphenyl)-N-(4-pyridyl)-1H-pyrrolo[3,2-c]pyridin-4-amine] has an Emax of 50 to 100%.
Work on COc1cc(OC)cc(-c2cc3c(Nc4cccc(NS(C)(=O)=O)c4)nccc3[nH]2)c1 [Compound 292, N-[3-[[2-(3,5-dimethoxyphenyl)-1H-pyrrolo[3,2-c]pyridin-4-yl]amino]phenyl]methanesulfonamide] yielded an Emax of 30 to 50%.
With COc1cc(OC)cc(-c2cc3c(Nc4ccc(S(C)(=O)=O)cc4)nccc3[nH]2)c1 [Compound 293, 2-(3,5-dimethoxyphenyl)-N-(4-methylsulfonylphenyl)-1H-pyrrolo[3,2-c]pyridin-4-amine] the Emax was 50 to 100%.
COc1ccccc1-c1cc2c(Nc3ccc(C(N)=O)cc3)nccc2[nH]1 [Compound 294, 4-[[2-(2-methoxyphenyl)-1H-pyrrolo[3,2-c]pyridin-4-yl]amino]benzamide] was tested, and the Emax was 50 to 100%.
In the case of COc1ccccc1-c1cc2c(Nc3ccncc3)nccc2[nH]1 [Compound 295, 2-(2-methoxyphenyl)-N-(4-pyridyl)-1H-pyrrolo[3,2-c]pyridin-4-amine], the Emax is reported as 50 to 100%.
COc1ccccc1-c1cc2c(Nc3ccc4c(c3)OCO4)nccc2[nH]1 [Compound 296, N-(1,3-benzodioxol-5-yl)-2-(2-methoxyphenyl)-1H-pyrrolo[3,2-c]pyridin-4-amine] showed an Emax of 30 to 50%.
Molecule COc1ccccc1-c1cc2c(Nc3cccc(O)c3)nccc2[nH]1 [Compound 297, 3-[[2-(2-methoxyphenyl)-1H-pyrrolo[3,2-c]pyridin-4-yl]amino]phenol] has an Emax of 30 to 50%.
Work on COc1ccccc1-c1cc2c(Nc3cccc(NS(C)(=O)=O)c3)nccc2[nH]1 [Compound 298, N-[3-[[2-(2-methoxyphenyl)-1H-pyrrolo[3,2-c]pyridin-4-yl]amino]phenyl]methanesulfonamide] yielded an Emax of 50 to 100%.
COc1ccccc1-c1cc2c(Nc3cccc(NC(C)=O)c3)nccc2[nH]1 [Compound 299, N-[3-[[2-(2-methoxyphenyl)-1H-pyrrolo[3,2-c]pyridin-4-yl]amino]phenyl]acetamide] showed an Emax of 50 to 100%.
With COc1ccccc1-c1cc2c(Nc3ccc(S(C)(=O)=O)cc3)nccc2[nH]1 [Compound 300, 2-(2-methoxyphenyl)-N-(4-methylsulfonylphenyl)-1H-pyrrolo[3,2-c]pyridin-4-amine] the Emax was 50 to 100%.

Source: EP2818472A1, “Imidazo[4,5-c]pyridine and pyrrolo[3,2-c]pyridine compounds as G-protein-coupled receptor kinase 5 (GRK5) modulators” (Max-Planck-Gesellschaft zur Förderung der Wissenschaften …, priority 2013, dated 2014)
